How the values were obtained:
[1] = tested on: AMP-activated protein kinase; details: cited from earlier work
J774 cells [2] = assay: HPLC of nucleotides in extracts of cells loaded by ATP poration; assay type: cell-based, mouse; details: for intracellular nucleotides after loading (HPLC chromatogram): 20 min poration at 37° C. in DMEM pH 7.4 with 5 mM ATP, 5 mM AMP or 3.5 mM AMPS, FIG. 5
Experimental: Acid soluble extracts of cell suspensions were prepared by adding ice-cold 70% perchloric acid to a final concentration of 7% (w/v). Acid insoluble fractions were removed by centrifugation for 10 min at 10,000 g and 4° C. (Eppendorf Centrifuge 5417R, Fischer Scientific, Pittsburgh, Pa.). Extracts were neutralized with ice-cold 5 M K2CO3, and were stored at −80° C. until analyzed. The potassium perchlorate precipitate was removed by centrifugation as above. Analyses were performed using a Dionex HPLC system, including a GP 50 gradient pump, an AS 50 auto-sampler and an AS 50 thermal compartment (Dionex, Sunnyvale, Calif.). Aliquots of the supernatant were applied to a 4.6 mm×25 cm reverse-phase column (Synergy 4M Hydro RP 80A, Phenomenex, Torrance, Calif.),and eluted isocratically for 15 min with a starting buffer of 50 mM K2HPO4/KH2PO4, pH 6.2, containing 10 mM tetrabutyl-ammonium hydrogen sulfate (Sigma, St. Louise, Mo.) at a flow rate of 1 mL/min at 30° C. Then a linear gradient from 0% to 25% acetonitrile was applied over 40 min. Absorbance of the effluent was monitored with a PDA-100 photodiode array detector (Dionex, Sunnyvale, Calif.) at wavelengths from λ=190 nm to λ=390 nm. Peaks were identified by comparison with retention times of standards, as well as by analyzing peak spectra between λ=190 nm and λ=390 nm from a recorded 3D-field with Chromeleon™ software (Dionex, Sunnyvale, Calif.). Concentrations of nucleotides were determined from a measurement of peak area at λ=260 nm. Calibration curves were linear over the range assayed.
During poration, the cells were exposed to 5 mM AMP, or to 3.5 mM AMPS. Cells were extracted with perchloric acid after incubation. FIG. 5(A) depicts an HPLC chromatogram of the extracted AMP-loaded cells, and FIG. 5(B) depicts an HPLC chromatogram of the extracted AMPS-loaded cells.
The experiment was otherwise conducted as described in Example 5 and illustrated in FIG. 5(B), except that cellular AMP-deaminase was inhibited by adding 35 μM coformycin to the medium.

J774 cells [3] = assay: Trehalose uptake with and without extracellular ATP; assay type: cell-based
Experimental: Cell extracts were assayed for trehalose concentrations by separating carbohydrate peaks on a Hamilton RCX10 column, and then analyzing using pulsed amperometric electrochemical detection with an ESA Coulochem cell. […] The white bars are results from treatment for 15 minutes at 37° C. The cross-hatched bars are results from treatment for 15 minutes at 37° C., followed by 2 hours at 0° C. […] Each bar in FIG. 7 represents the mean of several different measurements. Although leaving the pores open for the longer periods of time at 37° C. can lead to cell death, the pores may be left open for longer periods at lower temperatures, while still leaving the cells viable and still allowing higher uptake of trehalose. At least 40% of the cells survived this treatment. We expect that the survivorship percentage will be improved by reducing the time the cells are held at 37° C. prior to chilling; future experiments will be done along these lines.

J774 cells [4] = assay: Calorimetric heat dissipation after ATP poration; assay type: cell-based, mouse; details: Buffer 1+5 mM ATP, 37° C., FIG. 4
Experimental: Calorimetric measurements were conducted to assess the influence of various treatments on the total energy flow of J774 cells. A 2277 thermal activity monitor (LKB Produkter, Bromma, Sweden) was used to measure the heat dissipation of J774 cells in suspension. A 4 mL static ampule charged with 2.7 mL water was used as a reference vessel. Static and dynamic calibrations against water in both ampules were performed before the experimental heat signals were measured. For the experiments, the sample ampule was charged with 2.7 mL of cell suspension. An aliquot of the spinner flask culture was diluted with standard culture medium to give 130,000-250,000 cells in 2.7 mL, which was equilibrated with 10% CO2 and 90% air. All calorimetric measurements were performed at 37° C. A two-hour period was allowed for thermal equilibration after lowering the ampule into the calorimeter. The power signal was then recorded for the next 20 hours. The ongoing proliferation of the cells produced a continuous increase in the heat signal during the measurements.
In this series of experiments, we assessed the influence of ATP-induced poration on the heat dissipation of J774 cells. […] Each bar in FIG. 4 represents the mean±standard deviation for three to six separate measurements. The pair of asterisks for the bar at three hours indicates a statistically significant difference from control (P<0.05).

J774 cells [5] = assay: Cell proliferation (cell counts) after ATP poration; assay type: cell-based, mouse; details: 15 min in Buffer 1+5 mM ATP, then spinner flask culture; FIG. 3
Experimental: To introduce compounds that were otherwise membrane-impermeable into the cytoplasm, J774.A1 cells were centrifuged at 175 g; and were then resuspended in Buffer 1 (50 mM K2HPO4/KH2PO4, pH 7.0, 365 mOsm, 250 mM trehalose, 1 mM MgSO4, 5 mM glucose, supplemented with Basal Medium Eagle Vitamin Solution and MEM Amino Acids Solution (Invitrogen, Grand Islands, N.Y.), with each of the last two components diluted to 1×). […] The cells were incubated for 15 min or 30 min at 37° C. in sealed microtubes.
(§1) To assess the effect of ATP-induced permeability on cell viability, cells were grown in suspension after activation and subsequent closure of the P2X7 receptor, as described above. […] The number of viable cells at different times was determined by counting with a hemocytometer after diluting the sample 1:1 with a 0.4% Trypan blue solution (Sigma, St. Louise, Mo.). Alternatively, cell viability was assessed by monitoring the metabolic activity of the cells with AlamarBlue™ (BioSource International, Inc., Camarillo, Calif.). […] After adding 20,000 to 40,000 cells to each well, absorbances at λ=570 nm and λ=600 nm were measured with a micro plate reader (Spectramax Plus, Molecular Devices, Sunnyvale, Calif.) at different times. […]
In another series of experiments, we assessed the degree to which cell proliferation was suspended following poration. […]

J774 cells [6] = assay: AlamarBlue reduction, metabolic activity after ATP-dependent poration; assay type: cell-based, mouse
Experimental: J774.A1 mouse macrophage cells (ATCC, Manassas, Va.) were grown in 75 cm^2 cell culture flasks (Corning Incorporated, Corning, N.Y.) containing a standard culture medium of Dubelco's modified Eagle's medium without sodium pyruvate, supplemented with 10% fetal bovine serum, 100 units/mL penicillin, 100 μg/mL streptomycin, and 2 mM glutamine (“DMEM”) (all from Invitrogen, Grand Islands, N.Y.). The cells were maintained in a humidified atmosphere of 10% CO2 and 90% air at 37° C. The number of cells per flask was determined with a hemocytometer after removal with a cell scraper. […]
as §1

porated cells = assay: Early unpublished ATP-induced cell poration, cell survival; assay type: cell-based; details: ATP-induced poration as in literature, pores not closed early; usually within about 24 hours
From the text: We observed that various dyes were indeed taken up by the cells as reported in the literature. But, at least in our experiments, we also invariably observed that the cells died soon thereafter.

J774 cells [7] = assay: Viability (trypan blue exclusion) after air-drying and rehydration; assay type: cell-based, mouse; details: 1 μM Trifluoperazine and 200 nM cyclosporin A together, in EB drying buffer and rehydration DMEM; versus control; FIG. 10

Question: What does the source list for `Nc1ncnc2c1ncn2[C@@H]1O[C@H](COP(O)(O)=S)[C@@H](O)[C@H]1O` [AMPS, Adenosine 5′-phosphorothioate]?
Answer: Km value, fold lower than the natural effector 5′-AMP [1]: approximately 6 fold; intracellular AMPS with AMP-deaminase inhibited (J774 cells [2]; 3.5 mM AMPS, 5 mM ATP poration, 35 μM coformycin in medium, FIG. 6): substantial intracellular concentration of AMPS was observed; intracellular nucleotides after loading (HPLC chromatogram) (J774 cells [2]): substantial production of a new compound; uptake by the cells in the absence of ATP (J774 cells [3]; no pore opening, data not shown): only negligible concentrations

Question: With `Nc1ncnc2c1ncn2[C@@H]1O[C@H](COP(=O)(O)O)[C@@H](O)[C@H]1O` [AMP] as the molecule, how does the “intracellular nucleotides after loading (HPLC chromatogram)” value (J774 cells [2]) read?
Answer: Its value is “an increase in ADP, and a substantial increase in IMP”.

Question: With `Nc1ncnc2c1ncn2[C@@H]1O[C@H](COP(=O)(O)OP(=O)(O)OP(=O)(O)O)[C@@H](O)[C@H]1O` [ATP, adenosine 5′-triphosphate] as the molecule, how does the “heat dissipation 3 hours after poration” value (J774 cells [4]; versus control cells) read?
Answer: Its value is “significantly reduced”.

Question: And the “heat signal 24 hours after poration” value (J774 cells [4]; versus untreated control cells)?
Answer: Its value is “indistinguishable from that for the untreated control cells”.

Question: And the “time for which cell proliferation stopped after poration” value (J774 cells [5])?
Answer: Its value is “approximately 20 hours”.

Question: What about the “metabolic activity when poration time increased from 15 minutes to 30 minutes” value (J774 cells [6]; Buffer 1+5 mM ATP, measured 17 h and 41 h after treatment, FIG. 2) of the same molecule?
Answer: Its value is “decreased substantially”.

Question: What about the “reduction of metabolic activity (AlamarBlue reduction)” value (J774 cells [6]; J774 cells, 40,000 per well, 15 min incubation, versus untreated control, FIG. 1) of the same molecule?
Answer: Its value is “about 50%”.

Question: What about the “fate of porated cells in early work” value (porated cells) of the same molecule?
Answer: Its value is “invariably died”.

Question: And the “cells surviving extended pore opening at low temperature” value (J774 cells [3]; Buffer 1+5 mM ATP, 15 min at 37° C. followed by 2 hours at 0° C.)?
Answer: Its value is “At least 40%”.

Question: Which “effect on the metabolism of AMPS in the cells” value (J774 cells [2]; 35 μM coformycin in medium, AMPS-loaded porated cells, FIG. 6) does the source give for `OC[C@H]1O[C@@H](n2cnc3c2N=CNC[C@H]3O)[C@H](O)[C@@H]1O` [coformycin] here?
Answer: The value was “inhibited the metabolism of AMPS in the cells”.

Question: Which “trehalose uptake in ATP-treated cells” value (J774 cells [3]; Buffer 1+5 mM ATP (250 mM trehalose), versus Buffer 1 without ATP, 15 min 37° C. or plus 2 h 0° C., FIG. 7) does the source give for `OC[C@H]1O[C@H](O[C@H]2O[C@H](CO)[C@@H](O)[C@H](O)[C@H]2O)[C@H](O)[C@@H](O)[C@@H]1O` [trehalose] here?
Answer: Its value is “significantly higher trehalose uptake”.

Question: And the “trehalose uptake in the absence of extracellular ATP” value (J774 cells [3]; Buffer 1 without ATP, FIG. 7)?
Answer: Its value is “Some uptake of trehalose was observed”.

Question: Which “viability post-drying with apoptosis inhibitors” value (J774 cells [7]) does the source give for `CN1CCN(CCCN2c3ccccc3Sc3ccc(C(F)(F)F)cc32)CC1` [trifluoperazine, Trifluoperazine] here?
Answer: Its value is “higher viability post-drying”.

Question: Which “viability post-drying with apoptosis inhibitors” value (J774 cells [7]) does the source give for cyclosporin A here?
Answer: Its value is “higher viability post-drying”.
